Test results: paper PMC6270165, “Synthesis and Biological Evaluation of 3-Benzisoxazolyl-4-indolylmaleimides as Potent, Selective Inhibitors of Glycogen Synthase Kinase-3β” (Molecules, 2013)

What was measured:
GSK-3β = target: T1, GSK-3β (Homo sapiens, UniProt P49841); assay: GSK-3β kinase assay (Z'-LYTE Kinase Assay kit Ser/Thr 9 Peptide); format: biochemical; conditions: 50 nM enzyme, 30 μM ATP, 2 μM substrate peptide; triplicate; mean ± SE; read-out: GSK-3β inhibitory activity IC50 (nM) ± SE
T1 construct: GST (N, cleaved yes); made in house; host or cells: Escherichia coli BL21-Codon Plus (DE3)
T1 sequence (P49841 whole entry): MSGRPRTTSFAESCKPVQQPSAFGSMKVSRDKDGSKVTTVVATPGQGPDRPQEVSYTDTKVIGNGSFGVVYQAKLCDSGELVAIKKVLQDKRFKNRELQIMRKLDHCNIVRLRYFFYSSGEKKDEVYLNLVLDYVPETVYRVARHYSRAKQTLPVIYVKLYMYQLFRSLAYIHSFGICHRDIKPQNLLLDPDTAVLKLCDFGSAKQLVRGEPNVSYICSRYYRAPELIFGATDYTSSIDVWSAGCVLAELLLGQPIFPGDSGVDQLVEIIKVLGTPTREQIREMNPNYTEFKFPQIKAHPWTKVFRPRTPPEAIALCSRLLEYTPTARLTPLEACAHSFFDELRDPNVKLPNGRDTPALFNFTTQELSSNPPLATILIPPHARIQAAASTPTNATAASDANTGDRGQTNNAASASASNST
Protocol: GSK3β belongs to CMGC family. Here, the other family members were used to evaluate the selectivity of GSK3β inhibitors, including PKC-epsilon (AGC family), JAK2 (TK family), Braf (TKL family), DRAK2 (CAMK family) and IKKβ (other family).The recombinant GST-GSK-3βprotein was expressed in Escherichia coli strain BL21-Codon Plus (DE3), purified by GSTrap affinity chromatography, and cleaved by thrombin. The GSK-3β kinase assay was carried out with the Z´-LYTETM Kinase Assay kit Ser/Thr 9 Peptide substrate (Invitrogen, Grand, NY, USA) in 10 μL reaction volume containing 50 nM enzyme, 30 μM ATP and 2 μM substrate peptide. Drak2 Proteins were presented by professor Jiang-ping Wu (Laboratory of Immunology, Research Centre, CHUM, Notre Dame Hospital, Pavilion DeSève). The Drak2 kinase reaction was performed in a final assay volume of 3.4 μL using the ADP-GLO Kinase Assay Kit (Promega, Madison, WI, USA), according the ADP-GLO protocol and read on an EnVision plate reader. The recombinant PKC-epsilon, IKKβ, and JAK2 with N-terminal His-tag were expressed using baculovirus expression system and purified with Ni-Beads. BRAF protein was from Carna Biosciences, Inc. (Kobe Port Island, Japan). And the related kinase reactions were performed in a final assay volume of 10 μL using the related HTRF Assay Kit (Cisbio, Codolet, France). Reactions were according the HTRF protocol and read on an EnVision plate reader. All reactions were carried out in triplicate. […] Data were expressed as mean ± SE.

[1] = test system: Tau phosphorylation at Ser 396 in SH-SY5Y cells; assay: Aβ25-35-induced Tau phosphorylation (Ser396) in SH-SY5Y cells, Western blotting; format: cell-based, human; conditions: 100 nM, inhibitors 1 hour, then Aβ25–35 6 hours, Western blot
Protocol: It has been implicated that GSK-3β is involved in multiple cellular processes, and its ability to hyperphosphorylate Tau protein and induce neurofibrillary tangle was intensively studied. Therefore, the cell-based assay examining Tau phosphorylation at Serine 396 represents a direct functional assay to measure the cellular activity of GSK-3β inhibitors. Compounds 7c, 7f, 7j–l and 7o–q were tested for the ability to reduce Tau phosphorylation at Ser 396 in human neuroblastoma SH-SY5Y cells. LiCl, a well-known inhibitor of GSK-3β [24], was used as a positive control in this assay. […] The Aβ-induced Tau hyperphosphorylation results in neurofibrillary tangle formation, which plays an important role in Alzheimer’s disease. […] In addition, the predictions about these compounds’ brain permeability were performed using ADME module with Discovery Studio 2.1 software package.
SH-SY5Y human neuroblastoma cells were obtained from the American Type Culture Collection (ATCC, Manassas, VA, USA). Cells were cultured in 1:1 DMEM:Ham's F12 containing 10% (v/v) fetal bovine serum (HyClone, Logan, UT, USA), 1% penicillin, and 1% streptomycin at a humidified atmosphere with 5% CO2. The medium was changed every 2 days. […] Antigen-antibody complexes were detected by the ECL Kit.

Compound: O=C1NC(=O)C(c2cn(CCCN3CCOCC3)c3cc(F)ccc23)=C1c1noc2ccccc12 [7f, 3-(Benzo[d]isoxazol-3-yl)-4-(6-fluoro-1-(3-morpholinopropyl)-1H-indol-3-yl)-1H-pyrrole-2,5-dione]
- IC50 (GSK-3β): 127 ± 3.2 nM
- Effect on Aβ25-35-induced Tau phosphorylation at Ser 396 [1]: obviously reduce
